Data as given in PubChem BioAssay (NCI).
Several values for one entry are separate records, joined by “and”; a condition that tells them apart may be missing. Equal entries are not always repeated.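 Interpolation was linear, between the two tested concentrations surrounding the appropriate level; five concentrations were tested over 48 hours in 96-well plates. GI50 is the concentration that inhibits growth by half. TGI denotes the concentration required for complete inhibition of growth.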

Assays:
Assay in all cases: NCI tumour cell line growth inhibition, 48 h
786-0 renal = test system: 786-0 renal
ACHN renal = test system: ACHN renal
BT-549 breast = test system: BT-549 breast
DLD-1 colon = test system: DLD-1 colon
DMS 114 small cell lung = test system: DMS 114 small cell lung
DMS 273 small cell lung = test system: DMS 273 small cell lung
DU-145 prostate = test system: DU-145 prostate
HCC-2998 colon = test system: HCC-2998 colon
HCT-15 colon = test system: HCT-15 colon
HL-60(TB) leukemia = test system: HL-60(TB) leukemia
HOP-18 NSCLC = test system: HOP-18 NSCLC
HOP-92 NSCLC = test system: HOP-92 NSCLC
HS 578T breast = test system: HS 578T breast
KM12 colon = test system: KM12 colon
KM20L2 colon = test system: KM20L2 colon
M14 melanoma = test system: M14 melanoma
M19-MEL melanoma = test system: M19-MEL melanoma
MDA-MB-231 breast = test system: MDA-MB-231 breast
MDA-MB-435 = test system: MDA-MB-435
MDA-N = test system: MDA-N
NCI-H460 lung = test system: NCI-H460 lung
NCI-H522 lung = test system: NCI-H522 lung
NCI/ADR-RES ovarian = test system: NCI/ADR-RES ovarian
OVCAR-4 ovarian = test system: OVCAR-4 ovarian
P388 leukemia = test system: P388 leukemia
P388/ADR leukemia = test system: P388/ADR leukemia
PC-3 prostate = test system: PC-3 prostate
RXF 393 renal = test system: RXF 393 renal
SN12K1 renal = test system: SN12K1 renal
SNB-78 CNS = test system: SNB-78 CNS
SR leukemia = test system: SR leukemia
T-47D breast = test system: T-47D breast
TK-10 renal = test system: TK-10 renal
UO-31 renal = test system: UO-31 renal
XF 498 CNS = test system: XF 498 CNS

CCCCCC(O)C1C(=O)OC(C)C(O)/C=C/C=C/C=C/C=C/C=C(\C)C(O)C(O)C(O)CC(O)CC(O)CC(O)CC(O)CC1O (stereo not given)
TGI (786-0 renal): > 100 µM | TGI (ACHN renal): > 100 µM | TGI (BT-549 breast): > 100 µM | TGI (DLD-1 colon): 3.32 µM | TGI (DMS 114 small cell lung): 2.92 µM | TGI (DMS 273 small cell lung): 2.84 µM | TGI (DU-145 prostate): > 100 µM | TGI (HCC-2998 colon): 3.26 µM | TGI (HCT-15 colon): 5.93 µM | TGI (HL-60(TB) leukemia): > 100 µM | TGI (HOP-18 NSCLC): 4.61 µM | TGI (HOP-92 NSCLC): 3.21 µM | TGI (HS 578T breast): > 100 µM | GI50 (KM12 colon): 11.8 µM and 1.77 µM | TGI (KM20L2 colon): 5.64 µM | TGI (M14 melanoma): > 100 µM | TGI (M19-MEL melanoma): 2.59 µM | TGI (MDA-MB-231 breast): > 100 µM | TGI (MDA-MB-435): > 100 µM | TGI (MDA-N): > 100 µM | TGI (NCI-H460 lung): 3.44 µM | TGI (NCI-H522 lung): 3.3 µM | TGI (NCI/ADR-RES ovarian): 3.73 µM | TGI (OVCAR-4 ovarian): 3.25 µM | TGI (P388 leukemia): 2.42 µM | TGI (P388/ADR leukemia): 3.8 µM | TGI (PC-3 prostate): > 100 µM | TGI (RXF 393 renal): 1.89 µM | TGI (SN12K1 renal): 2.97 µM | TGI (SNB-78 CNS): 4.69 µM | TGI (SR leukemia): > 100 µM | TGI (T-47D breast): > 100 µM | TGI (TK-10 renal): > 100 µM | TGI (UO-31 renal): 3.27 µM | TGI (XF 498 CNS): 2.84 µM
